Values of other authors in patent US20120213707A1, “Riboflavin Based Aerosol and Use as Placebo in Trials” (MPEX PHARMACEUTICALS, INC., priority 2009, published 2012).

Test system: men and women with a history of recurrent migraine headaches
Conditions: cited from earlier work

Question: For Cc1cc2nc3c(=O)[nH]c(=O)nc-3n(C[C@H](O)[C@H](O)[C@H](O)CO)c2cc1C [riboflavin], which “median migraine attack frequency” value (400 mg of riboflavin daily for three months, 23 patients, Boehnke 2004) is on record?
Answer: reduction in median migraine attack frequency

Question: And the “migraine attack frequency and number of headache days versus placebo” value (400 mg of riboflavin/day for three months, 54 men and women, Schoenen 1998)?
Answer: significantly better than placebo

Question: And the “clinical outcome in migraine” value (high-dose riboflavin, Sandor 2000)?
Answer: clinical improvement
